The values that follow come from patent publication US20140018750A1, “METHOD AND DEVICE OR PHARMACEUTICAL COMPOSITIONS FOR THE TRANSDERMAL DELIVERY OF MAGNESIUM DIRECTLY TO THE NEUROMUSCULAR JUNCTION FOR THE TREATMENT OF MUSCLE CRAMPING” (priority 2012, published 2014).

Experiment [1] relates to muscle cramping.
Experiment [2] has as its system sciatica. The following applies: Patient Michael, cream composed of aloe combined with 8% by MW of magnesium sulfate.

Consider `O=S(=O)([O-])[O-].[Mg+2]` [magnesium sulfate], for which the time to relief result in experiment [1] (Patient Doris, reoccurring severe muscle cramps in the right foot, liquid solution, 8% by MW of magnesium sulfate, applied to the area) is on record as “three”; in experiment [2], “six”. The “time until began to experience relief” value in experiment [1] (Patient Henry, severe muscle cramps in the upper right arm after exertion, liquid form of 8% by MW of magnesium sulfate applied directly) is listed as “three”. Besides, the “time to relief from both symptoms” value in experiment [1] (Patient Norma, severe leg cramps with restless leg syndrome, towel soaked in composition with 8% by MW of magnesium sulfate applied to affected area) is “four”.
